The source of these data is US20250179589A1, “SYNTHETIC LETHALITY AND THE TREATMENT OF CANCER” (PACYLEX PHARMACEUTICALS INC., priority 2012, published 2025).

A word on the Papp A→B: it is how fast a substance crosses the layer from the apical side. A higher Papp A→B goes with ready permeation. Broadly, the EC50 is the concentration at which the effect is half-maximal. Low readings indicate a more potent agent, high ones a less potent agent. A word on the Cmax: it is the maximum level reached in the sampled fluid or tissue. As usually defined, the Tmax is the time at which the peak concentration occurs. As a reminder, the fraction unbound is free concentration divided by total concentration. A low value points to little free substance. One may read the half-life as how long it takes for the measured level to halve. A low value points to rapid decline. In general, EC90 refers to the concentration needed for an effect of 90%. For orientation: Kp means tissue or fluid exposure divided by exposure in the circulation.

Each structure is given as a SMILES string. Where only a bound is given, the exact number is not on record here.

For data set [1], the target named is CYP450 2C19 (Homo sapiens, UniProt P33261). The data set is described as follows: CYP450 inhibition. Type of data set: in vitro ADME. Conditions: 2C19, at 1 uM.
Sequence of CYP450 2C19 (P33261 whole entry): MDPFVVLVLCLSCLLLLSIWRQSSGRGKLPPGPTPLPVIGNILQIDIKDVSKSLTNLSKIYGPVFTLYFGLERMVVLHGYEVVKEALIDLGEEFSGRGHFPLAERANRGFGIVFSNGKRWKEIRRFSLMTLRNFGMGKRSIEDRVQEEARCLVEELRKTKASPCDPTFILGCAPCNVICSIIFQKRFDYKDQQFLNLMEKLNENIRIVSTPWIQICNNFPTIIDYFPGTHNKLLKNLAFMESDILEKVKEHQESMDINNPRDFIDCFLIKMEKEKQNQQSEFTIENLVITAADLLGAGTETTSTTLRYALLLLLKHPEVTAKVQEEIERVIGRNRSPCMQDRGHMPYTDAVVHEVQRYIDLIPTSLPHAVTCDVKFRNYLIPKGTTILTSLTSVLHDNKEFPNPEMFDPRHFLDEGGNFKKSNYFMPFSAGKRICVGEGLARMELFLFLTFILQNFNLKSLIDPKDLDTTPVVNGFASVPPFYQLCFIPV
The nature of data set [2]: Caco-2 permeability Papp. Type of data set: in vitro ADME. Conditions: human. (Passage across Caco-2 layers is used to estimate intestinal permeability.)
Data set [3] can be described thus: Intrinsic clearance Cli, human. In kind it is in vitro ADME.
The subject of data set [4] is BL-2 (Burkitt's lymphoma) cells. The data set is described as follows: Trypan blue exclusion cell viability assay. Type of data set: cell-based, human. The procedure: (§1) Cell viability assay. B and T cell viability was measured using the trypan blue exclusion method. Cells were grown in confluency conditions (2×10^6 cells/mL maximum) assuring the minimum basal apoptosis. […] Cell viability was quantified using the TC10™ automated cell counter (Biorad).
(§2) The drugs were dissolved in DMSO to make 100× stock solutions for each concentration tested, so that the final volume of DMSO in each well was 1%.
(§3) Cell viability was then quantified using the TC10™ automated cell counter (Biorad).

Data set [5] relates to Ramos (Burkitt's lymphoma) cells. The data set is described as follows: Trypan blue exclusion cell viability assay. In kind it is cell-based, human. Conditions: Homo sapiens, 72 h. As to the method:
as §1, §2, §3

Data set [6] is described as follows: Intrinsic clearance Cli, rat. In kind it is in vitro ADME.
Data set [7] in a line: Mouse PO pharmacokinetics 10 mg/kg. Conditions: in vivo, PO 10 mg/kg, [ ] = range.
Data set [8] is described as follows: Fu Brain. Type of data set: in vitro ADME.
Data set [9] is described as follows: Mouse IV pharmacokinetics. Conditions: whole blood, [ ] = range; for Vd: read-out: Vss. In kind it is in vivo.
Data set [10] can be described thus: Intrinsic clearance Cli, mouse. In kind it is in vitro ADME.
For data set [11], the system named is IM-9 ("normal" EBV immortalized B cell). The data set is described as follows: Trypan blue exclusion cell viability assay. Type of data set: cell-based. Conditions: Homo sapiens, IM-9 cells, 72 h. As to the method:
as §1
(§4) […]. The drugs were dissolved in DMSO to make 100× stock solutions for each concentration tested, so that the final volume of DMSO in each well was 1%. The viability of cells treated with these inhibitors was measured with a trypan blue exclusion assay (Hudson, 1976).
as §3

The test system of data set [12] is KMH2 (Hodgkin's lymphoma) cells. The data set is described as follows: Trypan blue exclusion cell viability assay. Type of data set: cell-based. As to conditions: Homo sapiens, KM-H2, 72 h. The procedure: as §1, §4, §3
The nature of data set [13]: Fu plasma, human. In kind it is in vitro ADME.
The target in data set [14] is hERG (Homo sapiens, UniProt Q12809). The data set is described as follows: hERG (patch clamp). In kind it is cell-based.
Sequence of hERG (Q12809 whole entry): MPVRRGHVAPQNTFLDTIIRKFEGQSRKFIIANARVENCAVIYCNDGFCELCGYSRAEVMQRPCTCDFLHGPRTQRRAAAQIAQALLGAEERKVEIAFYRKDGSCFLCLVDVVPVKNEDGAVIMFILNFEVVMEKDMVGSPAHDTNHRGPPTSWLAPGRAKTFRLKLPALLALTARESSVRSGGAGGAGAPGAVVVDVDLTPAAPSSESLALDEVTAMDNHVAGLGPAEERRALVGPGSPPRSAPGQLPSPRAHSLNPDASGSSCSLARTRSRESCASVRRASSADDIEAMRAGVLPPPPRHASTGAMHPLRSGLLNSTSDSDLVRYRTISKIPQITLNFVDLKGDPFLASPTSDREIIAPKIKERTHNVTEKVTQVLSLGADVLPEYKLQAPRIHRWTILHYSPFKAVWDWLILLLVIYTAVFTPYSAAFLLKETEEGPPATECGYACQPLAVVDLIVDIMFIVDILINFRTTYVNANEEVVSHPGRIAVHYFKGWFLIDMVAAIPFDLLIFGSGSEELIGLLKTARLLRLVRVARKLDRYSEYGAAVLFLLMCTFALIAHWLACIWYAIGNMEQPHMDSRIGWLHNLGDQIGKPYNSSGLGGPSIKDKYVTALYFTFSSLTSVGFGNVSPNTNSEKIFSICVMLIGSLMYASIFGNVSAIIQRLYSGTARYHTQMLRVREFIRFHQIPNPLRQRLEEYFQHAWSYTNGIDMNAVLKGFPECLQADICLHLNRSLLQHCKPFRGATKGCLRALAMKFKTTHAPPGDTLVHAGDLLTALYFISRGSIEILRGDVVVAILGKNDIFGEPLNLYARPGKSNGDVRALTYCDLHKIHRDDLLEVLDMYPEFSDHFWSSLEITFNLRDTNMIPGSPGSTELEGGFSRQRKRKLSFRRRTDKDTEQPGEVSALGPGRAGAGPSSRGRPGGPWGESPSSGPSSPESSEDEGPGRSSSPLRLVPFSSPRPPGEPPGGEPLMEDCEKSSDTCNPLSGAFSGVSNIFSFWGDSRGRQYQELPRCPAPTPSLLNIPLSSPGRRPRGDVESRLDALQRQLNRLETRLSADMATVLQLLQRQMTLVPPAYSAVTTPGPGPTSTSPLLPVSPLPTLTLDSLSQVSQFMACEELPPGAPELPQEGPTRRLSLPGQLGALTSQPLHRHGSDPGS
The target in data set [15] is T1, Pgp (Homo sapiens, UniProt P08183).
T1 construct: endogenous in cells; host or cells: Caco-2
T1 sequence (P08183 whole entry): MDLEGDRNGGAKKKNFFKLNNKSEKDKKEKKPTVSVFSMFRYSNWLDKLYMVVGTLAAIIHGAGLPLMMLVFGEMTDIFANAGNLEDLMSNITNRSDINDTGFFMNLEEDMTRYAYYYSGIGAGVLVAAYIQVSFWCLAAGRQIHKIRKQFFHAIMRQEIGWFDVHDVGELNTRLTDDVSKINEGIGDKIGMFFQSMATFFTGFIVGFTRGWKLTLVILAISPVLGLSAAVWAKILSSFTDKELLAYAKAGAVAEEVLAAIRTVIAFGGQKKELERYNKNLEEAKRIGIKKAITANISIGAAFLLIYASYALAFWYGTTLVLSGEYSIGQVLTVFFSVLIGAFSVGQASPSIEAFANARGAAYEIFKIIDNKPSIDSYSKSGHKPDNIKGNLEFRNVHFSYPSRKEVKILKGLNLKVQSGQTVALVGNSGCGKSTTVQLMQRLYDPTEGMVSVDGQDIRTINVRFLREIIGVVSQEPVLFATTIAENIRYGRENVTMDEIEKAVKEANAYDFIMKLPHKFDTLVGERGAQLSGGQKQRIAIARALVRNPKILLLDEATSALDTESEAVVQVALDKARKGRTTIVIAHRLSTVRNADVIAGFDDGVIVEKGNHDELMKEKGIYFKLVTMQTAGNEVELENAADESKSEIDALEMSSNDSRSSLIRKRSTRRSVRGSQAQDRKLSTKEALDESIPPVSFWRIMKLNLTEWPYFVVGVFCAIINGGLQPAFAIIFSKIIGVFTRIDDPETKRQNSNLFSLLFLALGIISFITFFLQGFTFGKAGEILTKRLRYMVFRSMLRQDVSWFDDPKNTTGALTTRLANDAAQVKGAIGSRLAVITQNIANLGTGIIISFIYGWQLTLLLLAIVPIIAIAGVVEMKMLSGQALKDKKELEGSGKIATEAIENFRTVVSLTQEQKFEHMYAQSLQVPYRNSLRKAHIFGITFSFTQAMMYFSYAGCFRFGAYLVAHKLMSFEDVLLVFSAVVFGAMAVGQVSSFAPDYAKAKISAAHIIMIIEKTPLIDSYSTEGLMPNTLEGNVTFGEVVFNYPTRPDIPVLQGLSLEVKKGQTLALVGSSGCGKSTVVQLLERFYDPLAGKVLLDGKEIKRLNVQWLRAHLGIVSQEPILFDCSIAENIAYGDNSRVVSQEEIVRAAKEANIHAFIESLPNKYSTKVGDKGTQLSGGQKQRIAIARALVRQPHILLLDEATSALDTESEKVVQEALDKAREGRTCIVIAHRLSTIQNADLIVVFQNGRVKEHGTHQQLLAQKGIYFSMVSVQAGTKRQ
The data set is described as follows: Pgp efflux, Caco-2. Type of data set: in vitro ADME.

The test system of data set [16] is myristoylation in IM-9 cells. The data set is described as follows: Inhibition of myristoylation, alkynyl-myristate labeling and click chemistry. Type of data set: cell-based, human. The procedure: (§5) Cells were labeled with 100 to 25 μM ω-alkynyl myristic acid 30 min prior to harvesting the cells and lysed in 0.1% SDS-RIPA-HEPES buffer. Protein (50-30 μg) from the resulting cell lysates were reacted with 100 μM azido-biotin using click chemistry and processed as described previously (Yap et al., 2010). Briefly, cells were starved of fatty acids by incubating in media (RPMI or DMEM) which were supplemented with 5% dextran-coated charcoal-treated FBS (DCC-FBS) for 1 h prior to labeling. Next, ω-alkynyl-myristic acid was dissolved in DMSO to generate 25 or 100 mM stock solutions. Typically, the cellular uptake of ω-alkynyl myristic acid typically was improved with saponification and conjugation to BSA. Therefore, prior to labeling, ω-alkynyl myristic acid was saponified with 20% molar excess of potassium hydroxide at 65° C. for 15 min. Next, serum-free culture media (pre-warmed) containing 20% fatty acid-free BSA at 37° C. was added to the saponified ω-alkynyl myristic acid and incubated for an additional 15 min at 37° C.
(§6) Subsequently, cells deprived of fatty acids were washed once with warm PBS and incubated in fresh RPMI or DMEM without any supplements. Next, the appropriate volume of 20× fatty acid-BSA conjugate in serum-free media was added to the cells, to ensure that the final concentration of BSA was 1% and Q-alkynyl myristic acid was at the indicated concentration (25 μM or 100 μM) for each respective experiment. DMSO or unlabeled fatty acids conjugated to BSA were used as controls for the experiments performed. Cells were labeled with ω-alkynyl myristic acid for 30 min at 37° C. in a 5% CO2 humidified incubator prior to harvesting. Cells were harvested in 0.1% SDS-RIPA-HEPES buffer that was supplemented with 1× complete protease inhibitor (EDTA-free).
(§7) After labeling cells with ω-alkynyl myristic acid, the resulting lysates were subjected to click chemistry with azido-biotin to enable the detection of the myristoylated proteins by ECL as described previously (Yap et al., 2010). Typically, cell lysates (30-50 μg of protein) were adjusted to contain 1% SDS and incubated with 100 μM Tris-(benzyltriazolylmethyl)amine (TBTA), 1 mM CuSO4, 1 mM Tris-carboxyethylphosphine (TCEP), and 100 μM azido-biotin at 37° C. for 30 min in darkness, in order for the click reaction to proceed. Next, 10 volumes of ice-cold acetone was added to stop the click reaction and proteins were precipitated at −20° C. overnight. Subsequently, the acetone precipitated proteins were centrifuged at 16,000 g for 10 min, resuspended in 1×SDS-PAGE sample buffer with 20 mM DTT. […]
(§8) In FIG. 9 E, the minimal dose of DDD86481 required to inhibit myristoylation in IM-9, BL2 and Ramos cell lines, was determined. […]

Data set [17] relates to myristoylation in BL2 cells. Described as above. In kind it is cell-based, human. The procedure: as §5, §6, §7, §8
Data set [18] relates to BL-2 (Burkitt's lymphoma) cells. The data set is described as follows: MTS cell viability assay. In kind it is cell-based, human. The procedure:
(§9) […]. The drugs were dissolved in DMSO to make 100× stock solutions for each concentration tested, so that the final volume of DMSO in each well was 1%. MTS [(3-(4,5-dimethylthiazol-2-yl)-5-(3-carboxymethoxyphenyl)-2-(4-sulfophenyl)-2H-tetrazolium)] assay was used to measure the cytotoxicity of the drug (Cory et al., 1991).
(§10) In FIG. 9, Panel B, DDD86481 was used to treat BL cells and control cell lines [IM9 (“normal” B lymphocyte) and KMH2 (HL cell line) that expresses both NMTs]. […]. The EC50 data are summarized as follows.

Data set [19] concerns Ramos (Burkitt's lymphoma) cells. The data set is described as follows: MTS cell viability assay. In kind it is cell-based, human. As to the method: as §9, §10
Data set [20] deals with "Normal" immortalized B lymphocytes (IM9). The data set is described as follows: Induction of apoptosis, PARP-1 and caspase-3 cleavage by western blotting. As to conditions: IM9, 72 h. Type of data set: cell-based, human. As to the method:
(§11) “Normal” immortalized B lymphocytes (IM9), KMH2 (Hodgkin's lymphoma) and BL (BL2 and Ramos) cells were incubated with increasing concentrations (nM) of DDD86481 and monitored the cleavage of poly-ADP-ribose polymerase-1 (PARP-1) and caspase-3 after the 72 h time point. Western blotting was performed on cell lysates to monitor the cleavage or PARP-1 and caspase-3 as well as the presence of GAPDH as loading control (composite gels).
A general note: In western blotting, separated proteins are transferred to a membrane and probed.

In data set [21] the test system is KMH2 (Hodgkin's lymphoma) cells. The description is as above. In kind it is cell-based, human. Conditions: KMH2, 72 h. As to the method:
as §11

The subject of data set [22] is BL (BL2 and Ramos) cells. The data set is described as above. In kind it is cell-based, human. As to conditions: BL cell lines, 72 h. The procedure: as §11
Data set [23] can be described thus: B:B Ratio. In kind it is in vivo. As to conditions: brain / blood.
The subject of data set [24] is IM-9 ("normal" EBV immortalized B cell). The data set is described as follows: MTS cell viability assay. Type of data set: cell-based. Conditions: Homo sapiens. As to the method:
as §9, §10

Data set [25] deals with KMH2 (Hodgkin's lymphoma) cells. The data set is described as follows: MTS cell viability assay. As to conditions: Homo sapiens, KM-H2, 72 h. In kind it is cell-based. The procedure: as §9, §10
Background: Formazan colour is commonly taken as a measure of viable cells.

Data set [26] can be described thus: Fu plasma, mouse. In kind it is in vitro ADME.
For data set [27], the system named is myristoylation in Ramos cells. The data set is described as follows: Inhibition of myristoylation, alkynyl-myristate labeling and click chemistry. Type of data set: cell-based, human. As to conditions: 2 h treatment. As to the method:
as §5
Subsequently, cells deprived of fatty acids were washed once with warm PBS and incubated in fresh RPMI or DMEM without any supplements. […]
as §8

For `Cc1nn(C)c(C)c1NS(=O)(=O)c1c(Cl)cc(-c2ccnc(N3CCNCC3)c2)cc1Cl` [DDD85646], the CYP450 inhibition in data set [1] is 2C19 (19% at 1 uM). The Papp A→B in [2] came out at 4.3 ×10⁻⁶ cm/s. The “Cli Human” value in data set [3] was determined as 1.2 mL/min/g. For the same molecule, the “times more sensitive than cells expressing both NMTs” value in [4] (BL-2 and Ramos vs immortalized "normal" B cells or KMH2, trypan blue) is listed as 15-72 times. The concentration giving a half-maximal response (EC50) was found to be 430 nM in data set [4] (Homo sapiens, BL2, 72 h); 370 nM in data set [5]; 7.08 µM in [11]; 29.6 µM in [12]. Also, in data set [6], the “Cli Rat” value turned out to be 0.5 mL/min/g. In data set [7], this molecule showed a Cmax of 2690 ng/mL. Also, the Tmax in data set [7] was determined as 0.25 h. Moreover, the values for the fraction unbound in [8] and in data set [13] were 0.068 and 0.176, respectively. The same molecule showed a half-life in data set [9] of 78 min. Moreover, the Vd in data set [9] is 0.6 L/kg. In addition, the “Cli Mouse” value in [10] was found to be 0.6 mL/min/g. Besides, the “hERG (patch clamp)” value in data set [14] is 27.7. For the same molecule, the Pgp result in [15] was “YES (Efflux ratio =”.
Take `Cc1c(NS(=O)(=O)c2c(Cl)cc(-c3ccnc(N4CCNCC4)c3)cc2Cl)c(CC(C)C)nn1C` [DDD86481]: the inhibition of myristoylation entry in data set [16] (IM-9, 1 μM, after one hour of treatment) is on record as “nearly complete inhibition of myristoylation”; in data set [17] (BL2, 1 μM, after one hour of treatment), “nearly complete inhibition of myristoylation”. Moreover, the “minimal dose at which incorporation of alkyne-myristate label decreases” value is reported as 100 nM in data set [16] (IM-9, 2 h treatment); 50 nM in data set [17] (BL-2, 2 h treatment); 50 nM in data set [27]. Besides, the “times more sensitive than cells expressing both NMTs” value in data set [18] (BL-2 and Ramos vs immortalized "normal" B cells or KMH2, MTS) is on record as 15-72 times. For the same molecule, the EC90 is 210 nM in data set [18] (Homo sapiens, BL2); 400 nM in data set [19] (Homo sapiens, Ramos); 134 µM in [24] (IM-9, IM9 cells, calculated from FIG. 9B). Also, the EC50 in data set [18] (Homo sapiens, BL2, 72 h) came to 58 nM; in data set [19] (Homo sapiens, Ramos, 72 h), 42 nM; in [24] (IM-9 cells, 72 h, MTS), 2200 nM; in data set [25] it was 12.6 µM. For the same molecule, the “factor by which cancer cells are preferentially killed” value in data set [19] (ratios of the EC50's and EC90's, normal B cell line vs Burkitt lymphoma cell lines) is over 300 fold. Also, in data set [3], the “Cli Human” value came to 0.7 mL/min/g. The “Cli Rat” value in [6] was found to be 1.0 mL/min/g. Further, the “PARP-1 and caspase-3 cleavage” value in data set [20] is listed as “No PARP-1 or caspase-3 cleavage was observed”; in data set [22], “occurred in a dose-dependent fashion”. Besides, in data set [21], the PARP-1 cleavage entry is “observed at higher concentrations, although it was minimal”. Besides, in data set [23], the partition ratio (Kp) came to 0.04. The peak level in data set [7] (Cmax) was 11200 ng/mL. For the same molecule, in data set [7], the Tmax came to 2 h. For the same molecule, the half-life is 342 min in data set [7] and 90 min in [9]. This molecule yielded a fraction unbound in [26] of 0.067. Further, the Vd in data set [9] turned out to be 0.4 L/kg. For the same molecule, in data set [10], the “Cli Mouse” value is recorded as under 0.5 mL/min/g.
